Values quoted from earlier work in patent US4873092A, “Slow-releasing preparation” (Murata Kikai Kabushiki Kaisha, priority 1987, dated 1989).

Conditions: mouce

## COc1cccc2c1C(=O)c1c(O)c3c(c(O)c1C2=O)C[C@@](O)(C(=O)CO)C[C@@H]3O[C@H]1C[C@H](N)[C@H](O)[C@H](C)O1 [Adriamycin]
  LD50 value: 9.8 mg/kg
